Key:
[1] = tested on: brain slices exposed to OGD; test: Lactate dehydrogenase (LDH) release induced by oxygen-glucose deprivation (OGD) in brain slices; assay type: cell-based, rat
Description: Rats were killed by decapitation under halothane anesthesia. The brains were removed and placed in ice-cold freshly prepared artificial cerebrospinal fluid (aCSF). Coronal brain slices (400 μm thickness) including the striatum (anteriority: from +1.2 to +2 mm from bregma) were cut using a tissue chopper (Mickie Laboratory Engineering Co., Gomshall, Surrey, UK).
The effects of gas mixtures containing xenon and argon on the release of lactate dehydrogenase (LDH) induced by OGD were assessed as described previously. Before being used, brain slices were transferred into individual vials with 1.3 ml of freshly prepared oxygenated aCSF containing 120 mM NaCl, 2 mM KCl, 2 mM CaCl2, 26 mM NaHCO3, 1.19 mM MgSO4, 1.18 mM KH2PO4, 11 mM d-glucose, and 30 mM HEPES and allowed to recover at room temperature for 45 min. Then, brain slices were placed at 36±0.5° C. into individual vials containing 1.3 ml of freshly prepared aCSF, saturated, and continuously bubbled with 100% oxygen (25 ml/min per vial). After a 30-min period, the incubation aCSF solution was renewed with oxygenated aCSF maintained at 36° C., and the slices were then incubated for 1 h to allow recording of basal levels of LDH. Whereas control slices were incubated for an additional 20-min period in the same conditions, those corresponding to the ischemic group were incubated in a glucose-free solution, saturated, and continuously bubbled with 100% nitrogen (OGD slices). After this 20-min period of OGD, to mimic reperfusion and treatment, the medium was replaced in all groups with freshly prepared aCSF solution, saturated and continuously bubbled with either medical air or gas mixtures containing xenon and argon in volume proportions as described below (see gas pharmacology section; n=20-36).
Xenon, argon, nitrogen, and oxygen were purchased from Air Liquide Sante (Paris, France). […]

[2] = tested on: rats injected with intracerebral NMDA; test: NMDA-induced neuronal death in vivo (brain damage after intracerebral injection of NMDA); set-up: species or system rat
Description: The effects of gas mixtures containing xenon and argon on the […] were assessed as described previously. On the day of surgery, rats were anesthetized with 1.5% halothane in oxygen alone in an anesthesia box and mounted on a stereotactic apparatus with the incisor bar set at 3.9 mm below the horizontal zero. A burr hole was drilled and a micropipette (less than […] at the tip) was lowered into the right striatum (anterior, 0.6 mm; lateral, 3.0 mm; ventral, 5.8 mm, from bregma) to allow injection of 70 nmol of NMDA in 1 μl of phosphate buffered solution (pH 7.4) over a 2-min period. After an additional 5-min period, the micropipette was removed, and the wounds were then sutured. During surgery, body temperature was kept at 37 ±0.5° C. with a feedback-controlled thermostatic heating pad (Harvard Apparatus Limited, Edenbridge, UK). The animals woke up in their home cage after about 10 min, where they were given free access to food and water. Sixty minutes after NMDA administration, rats were treated with medical air or gas mixtures containing xenon and argon (see gas pharmacological section). The number of rats per group was n=7-11.
(§1) Xenon, argon, nitrogen, and oxygen were purchased from Air Liquide Sante (Paris, France). Medical air composed of 75 vol % nitrogen and 25 vol % oxygen, and xenon and argon mixtures containing 37.5 vol % xenon and 37.5 vol % argon (Xe—Ar-37.5), 25 vol % xenon and 25 vol % argon (Xe—Ar-25) or 15 vol % xenon and 15 vol % argon (Xe—Ar-15)—with 25 vol % oxygen and the remainder being nitrogen when needed—were obtained using computer-driven gas mass flowmeters, and an oxygen analyzer to check that the gas mixtures used were not hypoxic.

[3] = target: T1, recombinant form of human tPA (Homo sapiens, UniProt P00750); test: In vitro tPA catalytic activity assay (initial rate method, chromogenic substrate); assay type: biochemical; settings: for catalytic efficiency of tPA: single gas alone at 25 vol %
T1 construct: purchased Boehringer Ingelheim Actilyse
Description: […] The recombinant form of human tPA (Actilyse®; Boehringer Ingelheim, Ingelheim am Rhein, Germany) and its specific chromogenic substrate methylsulfonyl-D-phenyl-glycil-arginine-7-amino-4-methylcoumarin acetate (Spectrozyme® XF, product 444; American Diagnostica, Stamford, CT) were diluted separately in 1 ml distilled water in 1.5-ml sterile tubes. […] The catalytic efficiency of tPA was assessed by the initial rate method by incubating 50 μl tPA with 50 μl substrate in a spectrofluorometer microplate reader set at 37° C.
as §1

tPA and rtPA = tPA and rtPA (Homo sapiens, UniProt P00750); settings: cited from earlier work
elastase = elastase (Sus scrofa, UniProt P00772); settings: cited from earlier work; for binding to the active site of elastase: serine protease used as a model of tPA
[4] = tested on: rat model of thromboembolic stroke; settings: intraischemic administration; cited from earlier work
[5] = cited from earlier work

T1 sequence (P00750 36-562): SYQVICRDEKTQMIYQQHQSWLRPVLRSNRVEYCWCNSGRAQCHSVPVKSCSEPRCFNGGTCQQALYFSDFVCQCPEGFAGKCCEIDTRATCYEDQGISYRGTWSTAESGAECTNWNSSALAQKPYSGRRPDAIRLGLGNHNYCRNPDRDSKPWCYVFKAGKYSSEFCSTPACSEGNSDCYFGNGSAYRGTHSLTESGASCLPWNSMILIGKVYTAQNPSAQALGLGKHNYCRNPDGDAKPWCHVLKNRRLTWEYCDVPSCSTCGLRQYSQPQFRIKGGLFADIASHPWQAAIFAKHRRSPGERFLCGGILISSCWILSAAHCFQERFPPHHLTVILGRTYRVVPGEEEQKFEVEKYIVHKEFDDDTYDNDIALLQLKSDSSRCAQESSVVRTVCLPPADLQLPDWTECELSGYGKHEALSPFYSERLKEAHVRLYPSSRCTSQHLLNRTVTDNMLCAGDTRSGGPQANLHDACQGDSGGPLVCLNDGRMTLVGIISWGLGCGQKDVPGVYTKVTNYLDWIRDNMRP
Chain of elastase (P00772 27-266): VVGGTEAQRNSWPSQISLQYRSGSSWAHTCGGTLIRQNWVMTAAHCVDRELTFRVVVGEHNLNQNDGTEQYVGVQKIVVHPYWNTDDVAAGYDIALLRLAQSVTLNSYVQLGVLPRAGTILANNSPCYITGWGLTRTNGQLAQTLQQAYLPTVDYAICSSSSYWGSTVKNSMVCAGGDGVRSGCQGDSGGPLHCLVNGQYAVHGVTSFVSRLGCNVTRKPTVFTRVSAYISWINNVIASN
Chain of tPA and rtPA (P00750 36-562): as the sequence (P00750 36-562) above

SMILES	OGD-induced LDH release ([1]; single gas alone at 15 vol %)	OGD-induced LDH release ([1]; single gas alone at 25 vol %)	NMDA-induced brain damage ([2]; single gas alone at 15 vol %)	NMDA-induced brain damage ([2]; single gas alone at 25 vol %)	tPA-induced catalytic activity ([3]; argon alone, concentration not given)	catalytic efficiency of tPA [3]	inhibiting action on the thrombolytic properties of tPA and rtPA (tPA and rtPA; neuroprotective concentrations of 50 vol % and above)	affinity for elastase relative to xenon (elastase)	binding to the active site of elastase (elastase)	inhibition of tPA and rtPA (tPA and rtPA; xenon alone)	tPA-induced thrombolysis and subsequent reduction of ischemic brain damage [4]	neuroprotection ([5]; subanesthetic concentrations of 37.5 vol % or 50 vol %)	possible therapeutic window of neuroprotection ([5]; xenon alone)
[Ar] [argon]	also had no effect by itself on OGD-induced LDH release	had no effect by itself on OGD-induced LDH release	also had no effect by itself on NMDA-induced brain damage	had no effect by itself on NMDA-induced brain damage	has no effect	decreased it significantly	shows no inhibiting action	lower affinity than xenon	bind to the active site of elastase	–	–	–	–
[Xe] [xenon]	had no effect by itself on OGD-induced LDH release	–	had no effect by itself on NMDA-induced brain damage	–	–	had no effect on the catalytic efficiency of tPA	–	–	bind to the active site of elastase	potent inhibitor of tPA and rtPA	dose-dependently inhibits	provided neuroprotection	about 8 h

Source: US20210386777A1, “GAS MIXTURES CONTAINING LOW CONC[…] XENON AND ARGON PROVIDE NEURO[…] INHIBITING THE CATALYTIC ACTIVITY OF TH[…]” ([…], priority 2017, published 2021)
